pEC50, pIC50: −log10 of the molar value. Where two headings read alike, the source gives them in different places.
Experiments:
Assay type in all cases: cell-based
[1] = test system: T47D cells expressing mutant PI3Ka (H1047R); test: In vitro cell proliferation, T47D cells (CellTiter-Glo); settings: inhibition of proliferation, read-out: Avg T-47D EC50
Method in brief: (§1)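 T47D cells in RPMI/10% FBS/insulin (0.2 units/mL) or SKBR3 in McCoys 5a/10% FBS, 1,500 cells/well, grown 72 h at 37 °C with 10-point compound dilutions. CellTiter-Glo luminescence; % inhibition normalised to 0.1% DMSO and 10 uM Alpelisib, EC50 from four-parameter curve fit.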

[2] = test system: SKBR3 cells express WT PI3Ka; test: In vitro cell proliferation, SKBR3 cells (CellTiter-Glo); settings: inhibition of proliferation
Method in brief: as §1

[3] = test system: phosphorylation of AKT (pAKT) in T47D cells expressing mutant PI3Ka (H1047R); test: In vitro cell pAKT (Ser473) HTRF, T47D cells; settings: cellular pAKT, T47D cells, mutant PI3Ka (H1047R), 6 hours, read-out: Avg T-47D IC50
Method in brief: (§2)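 T47D cells (RPMI, 10% FBS, 0.2 units/mL insulin) or SKBR3 cells (McCoy's 5a, 10% FBS) were seeded onto 10-point compound dilutions and incubated 6 h at 37 °C. After lysis, pAKT was detected overnight by HTRF (Eu cryptate/d2). IC50 was fitted from % inhibition relative to 0.1% DMSO and 10 uM alpelisib controls.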

[4] = test system: phosphorylation of AKT (pAKT) in SKBR3 cells express WT PI3Ka; test: In vitro cell pAKT (Ser473) HTRF, SKBR3 cells; settings: cellular pAKT
Method in brief: as §2

pEC50 ([1]; 72 hours)	pEC50 ([2]; 72 hours)	pIC50 [3]	pIC50 ([4]; 6 hours)	pEC50 ([1]; Homo sapiens, T47D, 72 h)	pEC50 ([2]; Homo sapiens, SK-BR-3, 72 h)	pIC50 ([3]; Homo sapiens, T47D, 6 h)	pIC50 ([4]; Homo sapiens, SK-BR-3, 6 h)	Structure (SMILES)
6.30 to 9.00	4.82 to 5.70	6.30 to 9.00	4.82 to 5.70					Cc1cc([C@@H](C)Nc2ccccc2C(=O)O)c2cc(N3CCN(c4cccc(C#N)c4)CC3)n(C)c(=O)c2c1 [Example 161]
6.30 to 9.00	< 4.82	6.30 to 9.00	4.82 to 5.70					Cc1cc([C@@H](C)Nc2ccccc2C(=O)O)c2cc(N3CCN(CC(F)F)CC3)n(C)c(=O)c2c1 [Example 162]
6.30 to 9.00	4.82 to 5.70	6.30 to 9.00	4.82 to 5.70					Cc1cc([C@@H](C)Nc2ccccc2C(=O)O)c2cc(N3CCC(C)(C#N)CC3)n(C)c(=O)c2c1 [Example 164]
5.70 to 6.30	< 4.82	6.30 to 9.00	< 4.82					Cc1cc([C@@H](C)Nc2ccccc2C(=O)O)c2cc(N3CC(C)(C#N)C3)n(C)c(=O)c2c1 [Example 165]
5.70 to 6.30	< 4.82	6.30 to 9.00	< 4.82					Cc1cc(C(C)Nc2ccccc2C(=O)O)c2cc(N3CC4(CCN(CC(F)(F)F)C4)C3)n(C)c(=O)c2c1 (centres unmarked) [Example 171]
6.30 to 9.00	< 4.82	6.30 to 9.00	< 4.82					Cc1cc(C(C)Nc2ccccc2C(=O)O)c2cc(N3CC4(CCN(CC(F)(F)F)CC4)C3)n(C)c(=O)c2c1 (centres unmarked) [Example 172]
				6.30 to 9.00	4.82 to 5.70	6.30 to 9.00	< 4.82	Cc1cc([C@@H](C)Nc2ccccc2C(=O)O)c2cc(N3CCN(Cc4ccccn4)CC3)n(C)c(=O)c2c1 [Example 175]
				6.30 to 9.00	4.82 to 5.70	6.30 to 9.00	< 4.82	Cc1cc([C@@H](C)Nc2ccccc2C(=O)O)c2cc(N3CCN(Cc4cccc(C)n4)CC3)n(C)c(=O)c2c1 [Example 176]
				6.30 to 9.00	< 4.82	6.30 to 9.00	< 4.82	Cc1cc([C@@H](C)Nc2ccccc2C(=O)O)c2cc(N3CC(C)(c4ccccc4)C3)n(C)c(=O)c2c1 [Example 179]
				6.30 to 9.00	< 4.82	6.30 to 9.00	< 4.82	COC1CN(c2cc3c([C@@H](C)Nc4ccccc4C(=O)O)cc(C)cc3c(=O)n2C)C1 [Example 180]
				5.70 to 6.30	< 4.82	6.30 to 9.00	< 4.82	Cc1cc([C@@H](C)Nc2ccccc2C(=O)O)c2cc(N3CC4(CN(CC(F)(F)F)C4)C3)n(C)c(=O)c2c1 [Example 184]
				6.30 to 9.00	< 4.82	6.30 to 9.00	4.82 to 5.70	Cc1cc([C@@H](C)Nc2ccccc2C(=O)O)c2cc(N3CCC4(CN(CC(F)(F)F)C4)C3)n(C)c(=O)c2c1 [Example 185]
				6.30 to 9.00	4.82 to 5.70	6.30 to 9.00	4.82 to 5.70	Cc1cc([C@@H](C)Nc2ccccc2C(=O)O)c2cc(N3CCN(c4ccccn4)CC3)n(C)c(=O)c2c1 [Example 186]
				6.30 to 9.00	4.82 to 5.70	6.30 to 9.00	< 4.82	Cc1cc([C@@H](C)Nc2ccccc2C(=O)O)c2cc(N3CCN(c4ccnc(C)n4)CC3)n(C)c(=O)c2c1 [Example 187]
				6.30 to 9.00	4.82 to 5.70	6.30 to 9.00	5.70 to 6.30	Cc1cc([C@@H](C)Nc2ccccc2C(=O)O)c2cc(N3CCN(c4cccnc4C#N)CC3)n(C)c(=O)c2c1 [Example 188]
				6.30 to 9.00	< 4.82	6.30 to 9.00	< 4.82	Cc1cc([C@@H](C)Nc2ccccc2C(=O)O)c2cc(-c3ccc(OC(F)F)nc3)n(C)c(=O)c2c1 [Example 189]
5.70 to 6.30	< 4.82	6.30 to 9.00	< 4.82					Cc1cc(C(C)Nc2ccccc2C(=O)O)c2cc(N3CC4C(C3)C4C(F)(F)F)n(C)c(=O)c2c1 (centres unmarked) [Example 191]
				6.30 to 9.00	< 4.82	6.30 to 9.00	< 4.82	Cc1cc([C@@H](C)Nc2ccccc2C(=O)O)c2cc(N3CC(F)(c4cccnc4)C3)n(C)c(=O)c2c1 [Example 192]
				5.70 to 6.30	< 4.82	6.30 to 9.00	< 4.82	COCC1CN(c2cc3c([C@@H](C)Nc4ccccc4C(=O)O)cc(C)cc3c(=O)n2C)C1 [Example 193]
5.70 to 6.30	< 4.82	6.30 to 9.00	< 4.82					Cc1cc([C@@H](C)Nc2ccccc2C(=O)O)c2cc(-c3ccc(Oc4ccc(F)cc4)nc3)n(C)c(=O)c2c1 [Example 194]

Reference: patent US20260078103A1, “ISOQUINOLONES AS PI3K INHIBITORS” (OnKure, Inc., priority 2022, published 2026)
